Measured values taken from ChEMBL document CHEMBL1122628, “Nonsteroidal antiinflammatory agents. 14. Synthesis and pharmacological profile of 6-chloro-5-(cyclopentylmethyl)indan-1-carboxylic acid” (J Med Chem, 1984).

How the values were obtained:
Rattus norvegicus [1] = organism: Rattus norvegicus; assay: Gastrointestinal tolerability was evaluated under acute conditions, in rats. The ulcerogenic dose was reported.; format: functional
Rattus norvegicus [2] = assay: Antiinflammatory activity was evaluated in an carrageenan edema (acute inflammation) test, after administering compound orally in rats.; format: functional; details: po
Rattus norvegicus [3] = organism: Rattus norvegicus; assay: Gastrointestinal tolerability was evaluated in rats and compound dose that causes lethality was reported.; format: toxicity, organism-based; details: in vivo
Rattus norvegicus [4] = organism: Rattus norvegicus; assay: Gastrointestinal tolerability was evaluated in rats and amount blood loss was reported.; format: functional
Rattus norvegicus [5] = assay: Antiinflammatory activity was evaluated in an adjuvant arthritis (subchronic inflammation) test, after administering compound orally in rats.; format: functional; details: po
Rattus norvegicus [6] = organism: Rattus norvegicus; assay: Gastrointestinal tolerability was evaluated under chronic conditions, in rats. The ulcerogenic dose was reported.; format: functional
Rattus norvegicus [7] = assay: Antiinflammatory activity was evaluated in an carrageenan edema (acute inflammation) test, after administering compound orally in rats; format: functional; details: po
Rattus norvegicus [8] = organism: Rattus norvegicus; assay: Gastrointestinal tolerability was evaluated under chronic conditions, in rats. The ulcerogenic dose was reported; format: functional
Rattus norvegicus [9] = organism: Rattus norvegicus; assay: Gastrointestinal tolerability was evaluated in rats and amount blood loss was reported; format: functional
Rattus norvegicus [10] = assay: Antiinflammatory activity was evaluated in an adjuvant arthritis (subchronic inflammation) test after administering compound orally in rats.; format: functional; details: po
Rattus norvegicus [11] = assay: Antiinflammatory activity was evaluated in an adjuvant arthritis (subchronic inflammation) test after administering compound orally in rats; format: functional; details: po
Rattus norvegicus [12] = organism: Rattus norvegicus; assay: Gastrointestinal tolerability was evaluated under acute conditions, in rats. The ulcerogenic dose was reported; format: functional
Rattus norvegicus [13] = organism: Rattus norvegicus; assay: Gastrointestinal tolerability was evaluated in rats and compound dose that causes lethality was reported; format: toxicity, organism-based; details: in vivo
Rattus norvegicus [14] = assay: Antiinflammatory activity was evaluated in an carrageenan edema (acute inflammation) test, after administering compound orally in rats; 50-100; format: functional; details: po
Rattus norvegicus [15] = organism: Rattus norvegicus; assay: Gastrointestinal tolerability was evaluated under chronic conditions, in rats. The ulcerogenic dose was reported; 30-100; format: functional
Rattus norvegicus [16] = assay: Antiinflammatory activity was evaluated in an carrageenan edema (acute inflammation) test, after administering compound orally in rats; 15-30; format: functional; details: po
Rattus norvegicus [17] = organism: Rattus norvegicus; assay: Gastrointestinal tolerability was evaluated under chronic conditions, in rats. The ulcerogenic dose from a 4-week toxicity study, was reported.; format: functional

With `COc1ccc2cc([C@H](C)C(=O)O)ccc2c1` [NAPROXEN] the UD (Rattus norvegicus [1]) was 5 mg/kg, the ED50 (Rattus norvegicus [2]) was 15 mg/kg and the Lethality (Rattus norvegicus [3]) was > 30 mg/kg. For the same molecule, the Blood loss (Rattus norvegicus [4]) was >30 mg/kg and the ED40 (Rattus norvegicus [5]) was 10 mg/kg.
`COc1ccc2c(c1)c(CC(=O)O)c(C)n2C(=O)c1ccc(Cl)cc1` [INDOMETHACIN] was tested, and the UD (Rattus norvegicus [1]) was 4 mg/kg, the ED50 (Rattus norvegicus [2]) was 4 mg/kg and the UD (Rattus norvegicus [6]) was 4 mg/kg. For the same molecule, the Lethality (Rattus norvegicus [3]) was 8 mg/kg, the Blood loss (Rattus norvegicus [4]) was 4 mg/kg and the ED40 (Rattus norvegicus [5]) was 2 mg/kg.
`O=C(O)Cc1ccccc1Nc1c(Cl)cccc1Cl` [DICLOFENAC] gave a UD (Rattus norvegicus [1]) of 20 mg/kg, an ED50 (Rattus norvegicus [7]) of 2 mg/kg and a UD (Rattus norvegicus [8]) of 20 mg/kg. The Blood loss (Rattus norvegicus [9]) was 20 mg/kg and the ED40 (Rattus norvegicus [10]) was 2 mg/kg.
For `CC(C)Cc1ccc(C(C)C(=O)O)cc1` (configuration not stated) [IBUPROFEN], the ED40 (Rattus norvegicus [11]) was > 150 mg/kg, the UD (Rattus norvegicus [12]) was 30 mg/kg and the Lethality (Rattus norvegicus [13]) was 400 mg/kg. It also gave an ED50 (Rattus norvegicus [14]) of 50 mg/kg, a UD (Rattus norvegicus [15]) of 30 mg/kg and a Blood loss (Rattus norvegicus [9]) of 200 mg/kg.
In the case of `CC(C(=O)O)c1ccc2oc(-c3ccc(Cl)cc3)nc2c1` (configuration not stated) [BENOXAPROFEN], the ED40 (Rattus norvegicus [11]) is reported as 10 mg/kg, the UD (Rattus norvegicus [12]) is reported as >200 mg/kg and the Lethality (Rattus norvegicus [13]) is reported as < 50 mg/kg. The UD (Rattus norvegicus [8]) was <30 mg/kg, the Blood loss (Rattus norvegicus [9]) was <50 mg/kg and the ED50 (Rattus norvegicus [16]) was 15 mg/kg.
In the case of `O=C(O)C1CCc2cc(C3CCCCC3)c(Cl)cc21` (configuration not stated) [CLIDANAC], the UD (Rattus norvegicus [1]) is reported as <3 mg/kg, the ED50 (Rattus norvegicus [2]) is reported as 4 mg/kg and the ED40 (Rattus norvegicus [5]) is reported as 4 mg/kg.
In the case of `O=C(O)C1CCc2cc(CC3CCCC3)c(Cl)cc21` (configuration not stated), the UD (Rattus norvegicus [17]) is reported as >400 mg/kg, the UD (Rattus norvegicus [1]) is reported as >400 mg/kg and the ED50 (Rattus norvegicus [2]) is reported as 30 mg/kg. For the same molecule, the UD (Rattus norvegicus [6]) was >100 mg/kg, the Blood loss (Rattus norvegicus [4]) was >100 mg/kg and the ED40 (Rattus norvegicus [5]) was 30 mg/kg.
